Test system: food intake in food deprived rats
Experiment: Effect of intranasal administration of capsaicin on food intake in food deprived rats
Format: in vivo, Male Sprague-Dawley rats
Conditions: intra-nasal liquid solution, 0.02-2 mg/kg of body weight, food introduced one hour after administration, consumption determined after 4, 12 and 24 hours, mush diet
Source text: Male Sprague-Dawley rats, 150-175 g at the start of the experiments (Charles River Laboratories, Wilmington, Mass.) were housed individually in suspended wire mesh cages. Rats had ad libitum access to tap water and food (Rodent Laboratory Chow No. 5001-pellet form, Purina) on non-testing days. A mush diet, used for experiments on food-deprived animals, and composed of equal parts by weight of ground rodent chow (Purina, #5001-meal form) and a 4% nutrient agar solution (Teklad Diets) was presented to the animals in glass jars. This agar-based chow diet allows for a more accurate measurement of food intake, and has been shown previously to be sufficient for maintaining normal rat growth.
Capsaicin was prepared as a liquid solution and administered intra-nasally, The drug dosage ranged from 0.02-2 mg/kg of body weight. Control animals were administered placebo formulation without capsaicin. One hour after administration, pre-weighed food jars were introduced into the cage and a sheet of clean white paper placed under each cage to catch any spillage. The amount of food consumed after 4, 12 and 24 hours was determined to the nearest 0.01 g.

Structure (SMILES): COc1cc(CNC(=O)CCCC/C=C/C(C)C)ccc1O [Capsaicin]
- amount of food consumed versus placebo: significantly less food

Reference: US20060292254A1, “Orally and nasally administered appetite suppressant” (priority 2005, published 2006)
